In patent EP4541376A1, “ANTIBODY-DRUG CONJUGATES” (priority 2023, dated 2025):
Numbered stars: 1 amine (or outer) side, 2 acyl side, 3 side chain; on linkers, the order of the positions; unused ones are H or OH. Square brackets hold non-standard residues; d marks the D form. Peptide text beside a SMILES is read from it. * marks the point of attachment. Exatecan = CC[C@@]1(O)C(=O)OCc2c1cc1n(c2=O)Cc2c-1nc1cc(F)c(C)c3c1c2[C@@H](N*)CC3; Propanoyl(3-maleimido) = O=C1C=CC(=O)N1CCC(=O)*; PABC = O=C(OCc1ccc(N[*:1])cc1)[*:2]

How the values were obtained:
[1] = Aggregation study during conjugation to test antibody (% monomer by SEC); type: physicochemical
Protocol: Aggregation is a process in which molecules self-associate with each other. In the context of the present invention, aggregation levels are assessed during the conjugation of a linker construct to an antibody. During conjugation, aggregation is quantified in terms of percentage monomer content. High percentage monomer values typically equate to a lower degree of aggregation. Percentage monomer values of 93% or 95% or higher typically mean negligible levels of aggregation or none, whereas values below this threshold typically translate to higher levels of aggregation.
2 mg of test monoclonal antibody at 8.87 mg/ml was pH adjusted with 5% 0.5 M Tris, 0.025 M EDTA, pH 8.5 and reduced with 2.3 mol. eq. TCEP and then conjugated with 6mol. eq. drug linker. […] Percentage monomer values of 95% or greater are assessed as low aggregation.
Aggregation levels were assessed during the conjugation to the test antibody.
During conjugation, we are ideally targeting a monomer content or percentage monomer of 95% or above. Low percentage monomer values usually translate to a higher degree of aggregation. One could therefore agree that percentage monomer values of 95% or higher mean very low levels of aggregation or none, whereas values below this threshold often translate to higher levels of aggregation.

[2] = Reverse-Phase HPLC retention time correlation study (hydrophobicity); type: physicochemical; settings: RP-HPLC; high Rt associated to hydrophobic constructs, low Rt to hydrophilic ones
Protocol: • Column: Phenomenex Gemini NX 5m, C18, 110 Å, 150 × 4.6 mm • Instrument: Shimadzu LC-2030 • Mobile phase: A) water (0.05% TFA), B) acetonitrile (0.05% TFA) • Gradient: 20-70% B over 15 min, flow 1.0 mL/min
A correlation study was also carried out using Reverse-Phase HPLC (RP-HPLC). The two constructs were injected in RP-HPLC and retention times (Rt) correlated with hydrophobicity - i.e., high Rt was associated to hydrophobic constructs whereas low Rt to hydrophilic ones.

SMILES: CC[C@@]1(O)C(=O)OCc2c1cc1n(c2=O)Cc2c-1nc1cc(F)c(C)c3c1c2[C@@H](NC(=O)OCc1ccc(NC(=O)[C@H](C)NC(=O)[C@@H](NC(=O)CNC(=O)CNC(=O)CNC(=O)CNC(=O)CNC(=O)CCN2C(=O)C=CC2=O)C(C)C)cc1)CC3 [Mal-Gly5-VA-PABC-Exatecan] ({Propanoyl(3-maleimido)}-GGGGGVA[PABC]-Exatecan)
- Aggregation (% monomer) ([1]; % monomer by SEC after conjugation to test monoclonal antibody, 95% or greater assessed as low aggregation): 98%
- Aggregation ([1]; grade in words, drug linker conjugated to test monoclonal antibody (2.3 mol. eq. TCEP, 6 mol. eq. drug linker)): None
- Rt [2]: 9.76 min
